The record followed here is patent US9598463B2, “Mucin hypersecretion inhibitors and methods of use” (BIOMARCK PHARMACEUTICALS, LTD., priority 2005, dated 2017).

Marks after values point to notes of the source that are not given here. Where a SMILES comes first, the peptide text is derived from it. The star is where a group is joined. Myristoyl = CCCCCCCCCCCCCC(=O)*

The nature of data set [1]: Qualitative solubility of test peptides in 0.5 N saline. Type of data set: physicochemical. As to conditions: pH 6.5, 20° C. (table title). How it is done:
Various test peptides (1 to 5 mg each) were weighed out accurately in individual 2 mL screw cap glass vials and aliquots of 25 μL of 0.5 N saline, pH 6.5, were added at 25° C. and ambient pressure. The solubility was evaluated visually. If the test peptide dissolves completely with the first aliquot of saline, its solubility was calculated and designated as more than the calculated amount. […] Similarly, if 1.7 mg of a test peptide fails to dissolve in 1.7 mL of 0.5 N saline, its solubility is stated as <1.0 mg/mL.

Data set [2] concerns methacholine-induced mucin hypersecretion. Put plainly: Methacholine-induced mucin hypersecretion in ovalbumin-sensitized mouse model of asthma, BAL mucin ELISA (Balb/C mice). The data set is classed as in vivo. The conditions noted are these: peptides at 100 μM. From the text:
Experiments were designed to test whether or not the MANS peptide and other test peptides related thereto inhibit hypersecretion of mucin in murine airway in vivo. The ovalbumin-sensitized mouse model of allergic inflammation and asthma used in these studies was as described by Singer et al. (2004), supra. As a negative control, a control peptide containing an N-terminal myristoyl group and the same amino acids as MANS peptide but arranged in random order (i.e., the random N-terminal sequence, RNS, myristoyl-peptide 232) was tested alongside the proposed active peptides. BP2 mice, aged 6-8 wks, were immunized subcutaneously twice at weekly intervals with 1 μg of ovalbumin. After 14 days of sensitization, the animals were exposed to aerosolized ovalbumin, which causes a pronounced goblet cell hyperplasia after 72 hours. At the 72 hr time point, the secretagogue, methacholine ([…]) was delivered using a Buxco system nebulizer providing a fine aerosol for 90 seconds. Fifteen min prior to the secretagogue challenge, 50 μL of the test peptide, at 3 different concentrations (10 μM, 100 μM, or 140 μM), was administered by intratracheal route. The RNS peptide was tested at the highest dose level only (50 μL of 140 μM solution). […] Each experiment was carried out in 6 mice per point, and each set of experiments was repeated 3 times. To test strain-to-strain variations, the above experiment was repeated in Balb/C mice under similar protocol. Both stimulated and unstimulated mucin secretion, in mice treated with […] sodium acetate (data not shown), were identical to saline control. Following the methacholine challenge, the animals were sacrificed and bronchoalveolar lavage (BAL) performed on 6 animals per group for analysis of secreted mucin.
Mice were sacrificed by cervical dislocation, followed by rapid exposure of the trachea and insertion of a cannula through a small incision. Bronchoalveolar lavage (BAL) fluid was collected with 0.5 ml followed by 3×1 ml PBS containing PMSF (5 mM), EDTA (5 mM), and DTT (5 mM). BAL fluid was separated into cell-free and cell fractions via brief centrifugation prior to any analyses being performed. The cell-free supernatants were analyzed for the presence of mucin via an ELISA method using anti-mucin antibodies shown to react with mouse mucin. Specifically, a mouse anti-MUC5AC antibody that recognizes the carbohydrate portion of secreted mucin was used in these assays. Data generated from each BAL sample were normalized to total protein as determined by Bradford assay. Mucin content was expressed as the value obtained with the anti-mucin antibody minus that obtained with the non-immune control antibody. All ELISA data were statistically examined using a one-way ANOVA.
On the technique in general: ELISA stands for enzyme-linked immunosorbent assay.

As for `CC(=O)N[C@@H](C)C(=O)N[C@@H](CCCCN)C(=O)NCC(=O)N[C@@H](CCC(=O)O)C(N)=O` [Ac-peptide 219-NH2] (Ac-AKGE-NH2), the solubility (usually the dissolved amount per volume that the medium holds) in data set [1] was above 200 mg/mL.

Turning to `CCCCCCCCCCCCCC(=O)NCC(=O)N[C@@H](C)C(=O)N[C@@H](CCC(N)=O)C(=O)N[C@@H](Cc1ccccc1)C(=O)N[C@@H](CO)C(=O)N[C@@H](CCCCN)C(=O)N[C@H](C(=O)N[C@@H](C)C(=O)N[C@@H](C)C(=O)N[C@@H](CCCCN)C(=O)NCC(=O)N[C@@H](CCC(=O)O)C(=O)N[C@@H](C)C(=O)N[C@@H](C)C(=O)N[C@@H](C)C(=O)N[C@@H](CCC(=O)O)C(=O)N[C@@H](CCCNC(=N)N)C(=O)N1CCC[C@H]1C(=O)NCC(=O)N[C@@H](CCC(=O)O)C(=O)O)[C@@H](C)O` [myr-peptide 11] (Myristoyl-GAQFSKTAAKGEAAAERPGE-OH), the “Mucin Secretion % control” value in data set [2] (Table III) was 54 % control. This compound also returned a solubility in data set [1] above 2 mg/mL.

Turning to `CCCCCCCCCCCCCC(=O)N[C@@H](CO)C(=O)N[C@@H](CCCCN)C(=O)N[C@H](C(=O)N[C@@H](C)C(=O)N[C@@H](C)C(=O)N[C@@H](CCCCN)C(=O)NCC(=O)N[C@@H](CCC(=O)O)C(=O)N[C@@H](C)C(=O)N[C@@H](C)C(=O)N[C@@H](C)C(=O)N[C@@H](CCC(=O)O)C(=O)N[C@@H](CCCNC(=N)N)C(=O)N1CCC[C@H]1C(=O)NCC(=O)N[C@@H](CCC(=O)O)C(=O)N[C@@H](C)C(=O)N[C@@H](C)C(=O)N[C@H](C(=O)N[C@@H](C)C(=O)O)C(C)C)[C@@H](C)O` [myr-peptide 15] (Myristoyl-SKTAAKGEAAAERPGEAAVA-OH), the “Mucin Secretion % control” value in data set [2] (Table III) was 38* % control. Besides, the solubility in data set [1] is above 80 mg/mL.

`CCCCCCCCCCCCCC(=O)NCC(=O)N[C@@H](C)C(=O)N[C@@H](CCC(N)=O)C(=O)N[C@@H](Cc1ccccc1)C(=O)N[C@@H](CO)C(=O)N[C@@H](CCCCN)C(=O)N[C@H](C(=O)N[C@@H](C)C(=O)N[C@@H](C)C(=O)N[C@@H](CCCCN)C(=O)NCC(=O)N[C@@H](CCC(=O)O)C(=O)N[C@@H](C)C(=O)N[C@@H](C)C(=O)N[C@@H](C)C(=O)N[C@@H](CCC(=O)O)C(=O)O)[C@@H](C)O` [myr-peptide 37] (Myristoyl-GAQFSKTAAKGEAAAE-OH): the “Mucin Secretion % control” value in data set [2] (Table III) is reported as 35** % control. Further, in data set [1], the solubility is above 2 mg/mL.

As to `CCCCCCCCCCCCCC(=O)NCC(=O)N[C@@H](C)C(=O)N[C@@H](CCC(N)=O)C(=O)N[C@@H](Cc1ccccc1)C(=O)N[C@@H](CO)C(=O)N[C@@H](CCCCN)C(=O)N[C@H](C(=O)N[C@@H](C)C(=O)N[C@@H](C)C(=O)N[C@@H](CCCCN)C(=O)NCC(=O)N[C@@H](CCC(=O)O)C(N)=O)[C@@H](C)O` [myr-peptide 79-NH2] (Myristoyl-GAQFSKTAAKGE-NH2), in data set [1], the solubility is below 1 mg/mL.

For the compound `CCCCCCCCCCCCCC(=O)NCC(=O)N[C@@H](C)C(=O)N[C@@H](CCC(N)=O)C(=O)N[C@@H](Cc1ccccc1)C(=O)N[C@@H](CO)C(=O)N[C@@H](CCCCN)C(=O)N[C@H](C(=O)N[C@@H](C)C(=O)N[C@@H](C)C(=O)O)[C@@H](C)O` [myr-peptide 121] (Myristoyl-GAQFSKTAA-OH), the solubility in data set [1] is below 1 mg/mL.

Consider `CCCCCCCCCCCCCC(=O)NCC(=O)N[C@@H](C)C(=O)N[C@@H](CCC(N)=O)C(=O)N[C@@H](Cc1ccccc1)C(=O)N[C@@H](CO)C(=O)N[C@@H](CCCCN)C(=O)N[C@H](C(=O)N[C@@H](C)C(N)=O)[C@@H](C)O` [myr-peptide 137-NH2] (Myristoyl-GAQFSKTA-NH2), for which the “Mucin Secretion % control” value in data set [2] (Table II, 50 μL intratracheal 15 min before methacholine) is given as 56 % control.

For the compound `CCCCCCCCCCCCCC(=O)N[C@H](C(=O)N[C@@H](C)C(=O)N[C@@H](C)C(=O)N[C@@H](CCCCN)C(=O)NCC(=O)N[C@@H](CCC(=O)O)C(=O)N[C@@H](C)C(=O)N[C@@H](C)C(=O)O)[C@@H](C)O` [myr-peptide 143] (Myristoyl-TAAKGEAA-OH), the solubility in data set [1] was below 1 mg/mL.

For `CCCCCCCCCCCCCC(=O)N[C@@H](C)C(=O)N[C@@H](C)C(=O)N[C@@H](CCCCN)C(=O)NCC(=O)N[C@@H](CCC(=O)O)C(=O)N[C@@H](C)C(=O)O` [myr-peptide 179] (Myristoyl-AAKGEA-OH), in data set [1], the solubility was below 1 mg/mL.

On to `CCCCCCCCCCCCCC(=O)N[C@@H](C)C(=O)N[C@@H](CCCCN)C(=O)NCC(=O)N[C@@H](CCC(=O)O)C(=O)O` [myr-peptide 219] (Myristoyl-AKGE-OH), for which the solubility in data set [1] is below 1 mg/mL.

Compound `CCCCCCCCCCCCCC(=O)NCC(=O)N[C@@H](C)C(=O)N[C@@H](CCC(N)=O)C(=O)N[C@@H](C)C(=O)N[C@@H](CO)C(=O)N[C@@H](CCCCN)C(=O)N[C@H](C(=O)N[C@@H](C)C(=O)N[C@@H](C)C(=O)N[C@@H](CCCCN)C(=O)NCC(=O)N[C@@H](CCC(=O)O)C(N)=O)[C@@H](C)O` [myr-peptide 237-NH2] (Myristoyl-GAQASKTAAKGE-NH2) returned a solubility in data set [1] below 1 mg/mL.

In data set [1], `CCCCCCCCCCCCCC(=O)NCC(=O)N[C@@H](C)C(=O)N[C@@H](CCC(N)=O)C(=O)N[C@@H](C)C(=O)N[C@@H](CO)C(=O)N[C@@H](CCCCN)C(=O)N[C@H](C(=O)N[C@@H](C)C(=O)N[C@@H](C)C(=O)N[C@@H](CCCCN)C(=O)NCC(=O)N[C@@H](CCC(=O)O)C(=O)O)[C@@H](C)O` [myr-peptide 237] (Myristoyl-GAQASKTAAKGE-OH) registered a solubility below 1 mg/mL.

In data set [1], `CCCCCCCCCCCCCC(=O)NCC(=O)N[C@@H](C)C(=O)N[C@@H](CCC(=O)O)C(=O)N[C@@H](Cc1ccccc1)C(=O)N[C@@H](CO)C(=O)N[C@@H](CCCCN)C(=O)N[C@H](C(=O)N[C@@H](C)C(=O)N[C@@H](C)C(=O)N[C@@H](CCCCN)C(=O)NCC(=O)N[C@@H](CCC(=O)O)C(=O)O)[C@@H](C)O` [myr-peptide 238] (Myristoyl-GAEFSKTAAKGE-OH) yielded a solubility above 2 mg/mL.

As to Ac-AAKGEA-OH [Ac-peptide 179], the solubility in data set [1] is above 150 mg/mL.

For Ac-AAQFSKTAAK-OH [Ac-peptide 242], the solubility in data set [1] is above 100 mg/mL.

Ac-AQFSKTAAKGE-NH2 [Ac-peptide 93-NH2] displayed a solubility in data set [1] above 90 mg/mL.

Ac-FSKTAAKGE-NH2 [Ac-peptide 124-NH2] gave a solubility in data set [1] above 100 mg/mL.

As to Ac-GAAFSKTAAK-OH [Ac-peptide 243], the solubility in data set [1] was above 50 mg/mL.

Ac-GAQASKTAAK-OH [Ac-peptide 236]: the solubility in data set [1] is above 80 mg/mL.

Ac-GAQFAKTAAK-OH [Ac-peptide 244] had a solubility in data set [1] above 120 mg/mL.

In turn, Ac-GAQFSATAAA-OH [Ac-peptide 249] yielded a solubility in data set [1] below 1 mg/mL.

Ac-GAQFSATAAK-OH [Ac-peptide 245] yielded a solubility in data set [1] above 100 mg/mL.

Ac-GAQFSKAAAK-OH [Ac-peptide 247] showed a solubility in data set [1] above 100 mg/mL.

In data set [1], Ac-GAQFSKTA-OH [Ac-peptide 137] came in with a solubility above 200 mg/mL.

Compound Ac-GAQFSKTAA-OH [Ac-peptide 121] showed a solubility in data set [1] above 20 mg/mL.

The compound Ac-GAQFSKTAAA-OH [Ac-peptide 248] yielded a solubility in data set [1] above 100 mg/mL.

In data set [1], Ac-GAQFSKTAAAGE-OH [Ac-peptide 239] registered a solubility above 50 mg/mL.

Compound Ac-GAQFSKTAAKGA-OH [Ac-peptide 241] returned a solubility in data set [1] above 50 mg/mL.

For Ac-GAQFSKTAAKGE-OH [Ac-peptide 79], the solubility in data set [1] is above 100 mg/mL.

Consider “Ac-GAQFSKTAAKGEAAAERPGEAAVA-OH [Ac-peptide 1]”, for which the solubility in data set [1] was above 125 mg/mL.

Turning to “Ac-GKASQFAKTA-OH [Ac-peptide 252, reference compound]”, the solubility in data set [1] is below 30 mg/mL.

“Ac-KAATKSFQAG-OH [Ac-peptide 246, reference compound]” displayed a solubility in data set [1] below 30 mg/mL.

Ac-KTAAKGE-NH2 [Ac-peptide 159-NH2] came in with a solubility in data set [1] above 200 mg/mL.

Compound Ac-QFSKTAAKGE-NH2 [Ac-peptide 108-NH2] returned a solubility in data set [1] above 150 mg/mL.

With Ac-SKTAAKGE-NH2 [Ac-peptide 141-NH2], the solubility in data set [1] is above 200 mg/mL.

Consider Ac-TAAKGEAA-OH [Ac-peptide 143], for which the solubility in data set [1] was above 230 mg/mL.
